{"source": "patent US10563263B2", "about": "“Genetic polymorphisms associated with statin response and cardiovascular diseases, methods of detection and uses thereof” (CELERA CORPORATION, priority 2010, dated 2020)", "test_system": "CVD (CHD or stroke)", "assay": "WOSCOPS: SNP by pravastatin treatment interaction, logistic regression (synergy index), CVD endpoint", "assay_type": "in vivo, human", "details": "for OR (synergy index), WOSCOPS, Prava vs Placebo: CVD endpoint, Caseonly; for OR (SNP x pravastatin treatment interaction): WOSCOPS pravastatin vs placebo", "excerpt": "CARE was a secondary prevention trial and WOSCOPS was a primary prevention trial.\nThe CHD endpoint was defined in the analyses herein of CARE as a composite endpoint of fatal CHD, definite non-fatal MI, or revascularization, and was defined in the analyses herein of WOSCOPS as a composite endpoint of death from CHD, nonfatal MI, or revascularization. In both the CARE and WOSCOPS analyses herein, the CVD endpoint was defined as a composite endpoint of CHD or stroke. […] Revascularization, which can include percutaneous transluminal coronary angioplasty (PTCA), stent placement, and coronary artery bypass graft (CABG), are medical interventions that indicate the presence of CHD.\nCohort and case-only study designs were used to identify SNPs associated with response to statin treatment.\nFor each SNP, a logistic regression model having treatment status as the dependent variable and SNP as the independent predictor variable was performed, with terms for age, sex and race included in the model as covariates. The anti-log of the regression coefficient corresponding to the SNP is an estimate of the synergy index (SI) (Davis et al., “Imputing gene-treatment interactions when the genotype distribution is unknown using case-only and putative placebo analyses-a new method for the Genetics of Hypertension Associated Treatment (GenHAT) study”, Statistics in Medicine 23: (2004), pages 2413-2427). The SI is a ratio of odds ratios: for example in the CARE and WOSCOPS studies, the SI represents the factor by which the odds-ratio of statin treatment, compared with placebo, among major homozygous individuals is multiplied by in order to obtain the odds-ratio of treatment vs. placebo among heterozygous individuals; and multiplied by a second time to obtain the odds-ratio of treatment vs. placebo in minor homozygous individuals. […] In a randomized clinical trial, genotype and treatment are independent by design."}
{"smiles": "CC[C@H](C)C(=O)O[C@H]1C[C@H](O)C=C2C=C[C@H](C)[C@H](CC[C@@H](O)C[C@@H](O)CC(=O)O)[C@H]21", "note": "[Pravastatin, pravastatin]", "values": [{"measurement": "OR (synergy index), WOSCOPS, Prava vs Placebo", "setting": "SNP rs304601 (A1 A, A2 G), rec model", "value": 3.93}, {"measurement": "OR (synergy index), WOSCOPS, Prava vs Placebo", "setting": "SNP rs988146 (A1 G, A2 A), add model", "value": 0.80}, {"measurement": "OR (SNP x pravastatin treatment interaction)", "setting": "SNP rs1241967, allele A1=T, model REC, Imputed", "value": 0.5915}, {"measurement": "OR (SNP x pravastatin treatment interaction)", "setting": "SNP rs1247340, allele A1=C, model ADD, Imputed", "value": 1.51}, {"measurement": "OR (SNP x pravastatin treatment interaction)", "setting": "SNP rs1247340, allele A1=C, model DOM, Imputed", "value": 1.767}, {"measurement": "OR (SNP x pravastatin treatment interaction)", "setting": "SNP rs1247341, allele A1=C, model ADD, Imputed", "value": 1.524}, {"measurement": "OR (SNP x pravastatin treatment interaction)", "setting": "SNP rs1247341, allele A1=C, model DOM, Imputed", "value": 1.795}, {"measurement": "OR (SNP x pravastatin treatment interaction)", "setting": "SNP rs1247343, allele A1=C, model DOM, Imputed", "value": 1.681}, {"measurement": "OR (SNP x pravastatin treatment interaction)", "setting": "SNP rs1335721, allele A1=A, model REC, Imputed", "value": 0.5999}, {"measurement": "OR (SNP x pravastatin treatment interaction)", "setting": "SNP rs1336382, allele A1=T, model DOM, Imputed", "value": 1.458}, {"measurement": "OR (SNP x pravastatin treatment interaction)", "setting": "SNP rs1336383, allele A1=T, model DOM, Imputed", "value": 1.458}, {"measurement": "OR (SNP x pravastatin treatment interaction)", "setting": "SNP rs1336407, allele A1=T, model DOM, Imputed", "value": 1.458}, {"measurement": "OR (SNP x pravastatin treatment interaction)", "setting": "SNP rs1336409, allele A1=T, model DOM, Imputed", "value": 1.458}, {"measurement": "OR (SNP x pravastatin treatment interaction)", "setting": "SNP rs1336596, allele A1=A, model DOM, Imputed", "value": 0.6728}, {"measurement": "OR (SNP x pravastatin treatment interaction)", "setting": "SNP rs1355715, allele A1=T, model ADD, Imputed", "value": 0.5755}, {"measurement": "OR (SNP x pravastatin treatment interaction)", "setting": "SNP rs1363273, allele A1=C, model REC, Imputed", "value": 0.5817}, {"measurement": "OR (SNP x pravastatin treatment interaction)", "setting": "SNP rs1373601, allele A1=A, model DOM, Imputed", "value": 0.5287}, {"measurement": "OR (SNP x pravastatin treatment interaction)", "setting": "SNP rs1395748, allele A1=G, model DOM, Imputed", "value": 0.6603}, {"measurement": "OR (SNP x pravastatin treatment interaction)", "setting": "SNP rs1414865, allele A1=T, model DOM, Imputed", "value": 1.433}, {"measurement": "OR (SNP x pravastatin treatment interaction)", "setting": "SNP rs1414873, allele A1=A, model DOM, Imputed", "value": 1.458}, {"measurement": "OR (SNP x pravastatin treatment interaction)", "setting": "SNP rs1414876, allele A1=C, model DOM, Imputed", "value": 1.458}, {"measurement": "OR (SNP x pravastatin treatment interaction)", "setting": "SNP rs1424643, allele A1=G, model ADD, Imputed", "value": 1.554}, {"measurement": "OR (SNP x pravastatin treatment interaction)", "setting": "SNP rs1424643, allele A1=G, model DOM, Imputed", "value": 1.592}, {"measurement": "OR (SNP x pravastatin treatment interaction)", "setting": "SNP rs1424648, allele A1=T, model DOM, Imputed", "value": 1.619}, {"measurement": "OR (synergy index), WOSCOPS, Prava vs Placebo", "setting": "SNP rs1559557 (A1 G, A2 A), add model", "value": 1.53}, {"measurement": "OR (synergy index), WOSCOPS, Prava vs Placebo", "setting": "SNP rs1877527 (A1 G, A2 A), add model", "value": 0.77}, {"measurement": "OR (synergy index), WOSCOPS, Prava vs Placebo", "setting": "SNP rs2132241 (A1 A, A2 G), add model", "value": 0.70}, {"measurement": "OR (synergy index), WOSCOPS, Prava vs Placebo", "setting": "SNP rs2270588 (A1 G, A2 A), add model", "value": 0.75}, {"measurement": "OR (synergy index), WOSCOPS, Prava vs Placebo", "setting": "SNP rs9325191 (A1 A, A2 C), add model", "value": 0.69}, {"measurement": "OR (synergy index), WOSCOPS, Prava vs Placebo", "setting": "SNP rs9346951 (A1 A, A2 G), add model", "value": 1.25}, {"measurement": "OR (synergy index), WOSCOPS, Prava vs Placebo", "setting": "SNP rs10787944 (A1 G, A2 A), dom model", "value": 1.45}, {"measurement": "OR (SNP x pravastatin treatment interaction)", "setting": "SNP rs11959206, allele A1=A, model REC, Imputed", "value": 0.5862}, {"measurement": "OR (SNP x pravastatin treatment interaction)", "setting": "SNP rs12038613, allele A1=C, model REC, Imputed", "value": 0.5999}, {"measurement": "OR (SNP x pravastatin treatment interaction)", "setting": "SNP rs12151417, allele A1=T, model DOM, Imputed", "value": 1.573}, {"measurement": "OR (SNP x pravastatin treatment interaction)", "setting": "SNP rs12153185, allele A1=T, model DOM, Imputed", "value": 0.6973}, {"measurement": "OR (SNP x pravastatin treatment interaction)", "setting": "SNP rs12182651, allele A1=T, model DOM, Imputed", "value": 2.24}, {"measurement": "OR (SNP x pravastatin treatment interaction)", "setting": "SNP rs12235345, allele A1=C, model DOM, Imputed", "value": 1.42}, {"measurement": "OR (SNP x pravastatin treatment interaction)", "setting": "SNP rs12324786, allele A1=T, model REC, Imputed", "value": 2.796}, {"measurement": "OR (SNP x pravastatin treatment interaction)", "setting": "SNP rs12336958, allele A1=G, model DOM, Imputed", "value": 1.46}, {"measurement": "OR (SNP x pravastatin treatment interaction)", "setting": "SNP rs12407412, allele A1=C, model ADD, Imputed", "value": 1.382}, {"measurement": "OR (SNP x pravastatin treatment interaction)", "setting": "SNP rs12407412, allele A1=C, model DOM, Imputed", "value": 1.401}, {"measurement": "OR (SNP x pravastatin treatment interaction)", "setting": "SNP rs12418971, allele A1=C, model REC, Imputed", "value": 1.699}, {"measurement": "OR (SNP x pravastatin treatment interaction)", "setting": "SNP rs12420184, allele A1=G, model DOM, Imputed", "value": 0.6518}, {"measurement": "OR (SNP x pravastatin treatment interaction)", "setting": "SNP rs12433968, allele A1=T, model DOM, Imputed", "value": 0.7213}, {"measurement": "OR (SNP x pravastatin treatment interaction)", "setting": "SNP rs12445477, allele A1=A, model DOM, Imputed", "value": 0.4063}, {"measurement": "OR (SNP x pravastatin treatment interaction)", "setting": "SNP rs12447191, allele A1=T, model ADD, Genotyped", "value": 0.6489}, {"measurement": "OR (SNP x pravastatin treatment interaction)", "setting": "SNP rs12447191, allele A1=T, model DOM, Genotyped", "value": 0.5081}, {"measurement": "OR (SNP x pravastatin treatment interaction)", "setting": "SNP rs12465349, allele A1=A, model REC, Imputed", "value": 1.587}, {"measurement": "OR (SNP x pravastatin treatment interaction)", "setting": "SNP rs12509758, allele A1=C, model DOM, Imputed", "value": 1.856}, {"measurement": "OR (SNP x pravastatin treatment interaction)", "setting": "SNP rs12515472, allele A1=A, model DOM, Imputed", "value": 1.531}, {"measurement": "OR (SNP x pravastatin treatment interaction)", "setting": "SNP rs12548906, allele A1=G, model ADD, Imputed", "value": 1.496}, {"measurement": "OR (SNP x pravastatin treatment interaction)", "setting": "SNP rs12596240, allele A1=G, model DOM, Imputed", "value": 0.6708}, {"measurement": "OR (SNP x pravastatin treatment interaction)", "setting": "SNP rs12618781, allele A1=A, model DOM, Imputed", "value": 0.5446}, {"measurement": "OR (SNP x pravastatin treatment interaction)", "setting": "SNP rs12678600, allele A1=A, model DOM, Imputed", "value": 0.6479}, {"measurement": "OR (SNP x pravastatin treatment interaction)", "setting": "SNP rs12692229, allele A1=T, model ADD, Imputed", "value": 1.315}, {"measurement": "OR (SNP x pravastatin treatment interaction)", "setting": "SNP rs12713324, allele A1=T, model DOM, Imputed", "value": 1.584}, {"measurement": "OR (SNP x pravastatin treatment interaction)", "setting": "SNP rs12719415, allele A1=T, model DOM, Imputed", "value": 0.6887}, {"measurement": "OR (SNP x pravastatin treatment interaction)", "setting": "SNP rs12820589, allele A1=G, model ADD, Imputed", "value": 1.758}]}
